# Key:
# Format in all cases: cell-based
# [1] = system: Jatropha curcas immature zygotic embryo and endosperm explants; test: Effect of 2,4-D concentration and zygotic embryo size on somatic embryo and calli formation; set-up: key to Explant Development Root Length / Explant Development Hypocotyl Length / Explant Development Calli Size: The relative size of explants and calli are indicated by the number of + symbols.; ++: The relative size of explants and calli are indicated by the number of + symbols.; +++: The relative size of explants and calli are indicated by the number of + symbols.; ++++: The relative size of explants and calli are indicated by the number of + symbols.; +++++: The relative size of explants and calli are indicated by the number of + symbols; conditions: end of 3rd week
# Procedure: Developing fruits were surfaced-sterilized and dissected to yield 200 immature zygotic embryos that were shorter than 1.5 cm in length. The embryos were separated into two groups, “<0.5 cm” and “0.5-1.5 cm”. The endosperm and zygotic embryo explants were cultured on solid media with various concentration of 2,4-D. On the 5th day, the embryos, which became greenish, enlarged and hardened, were removed from the endosperms and cut into small pieces of about 0.25 cm^2 each. The endosperm and embryo explants were cultured separately on the same media in the dark at 28° C. It was confirmed that most somatic embryos were produced on the endosperm explants where the embryos had been detached. It is apparent that, although 2,4-D was not essential for initiation of somatic embryos; […] concentration of it causes excessive expansion of explants.
# [2] = system: Jatropha curcas calli from zygotic embryo explants; test: Type II somatic embryo (TIISE) formation after shifting calli to hormone-free DGA medium; conditions: then DGA medium 6 weeks
# Procedure: Yellowish or white calli were observed on the explants from 3rd week if subcultured in the same medium. Extensively tested variables for induction of somatic embryogenesis were media of numerous compositions. Combinations of MS salt, Gamborg B5 salts, MS vitamins, Gamborg B5 vitamins; presence or absence of NH4NO3; amount of KNO3 (1.9-3.8 g/l); organic nitrogen source, e.g., free amino acids, casein hydrolysate; trace amount of hormones, e.g., kinetin (0-1 mg/l), benzyl adenine (0-1 mg/l); choice of carbon sources, e.g., glucose, sucrose and maltose; and activated carbon (5 g/l). In a large number of media, the calli died within 1-2 weeks when shifted into a new medium. […] An example of the medium is DGA medium in which 1 g/l glutamine and 0.5 g/l asparagines was supplemented. A cluster of somatic embryos of various stages emerged around the 10th day after the medium shift to DGA (FIG. 2).
# Somatic embryos formed in DGA medium underwent multiplication and maturation simultaneously. We called them Type II Somatic Embryos (TIISE). TIISEs were preferentially formed on explants previously cultured in media containing higher concentration of 2,4-D, for example, 2-5 mg/l during the first induction culture (Table 1).
# [3] = system: Jatropha curcas embryogenic calli; test: Embryogenic liquid suspension culture; conditions: liquid medium
# Procedure: FIGS. 5A-5D show embryogenic liquid suspension culture. About 50 mg embryogenic calli produced in solid DGA medium were inoculated in 20 ml modified DGA liquid media. Embryos larger than 2 mm were removed before inoculation. Subculture was done every two weeks. Photos were taken after 2 subcultures. FIG. 5A: 20 g/l sucrose, 1 g/l glutamine, 0.5 g/l asparagine, no 2,4-D. FIG. 5B: 20 g/l sucrose, 1 g/l glutamine, 0.5 g/l asparagine, 0.2 g/1 2,4-D. FIG. 5C: 30 g/l sucrose, 1 g/l glutamine, 0.5 g/l asparagine, 0.2 g/1 2,4-D. FIG. 5D: 20 g/l sucrose, 1 g/l glutamine, 0.5 g/l asparagine, 1 g/1 2,4-D. Arrow indicates the non-embryogenic ball-shaped calli. Scale bar represents 1 cm.
# Liquid cultures were performed in 65 mm plastic cylinder containers or 250 ml glass conical flasks that were placed in shakers set at 80 rpm, 28° C. constant temperature and 16-8 hours day-light cycles.
# Effects 2,4-D and carbon source on establishment of somatic embryogenic liquid suspension culture was investigated. […] At sucrose level ranging from 10-30 g/l, continued culture lead to maturation of the somatic embryo with no new initiation of secondary embryos (FIG. 5A). The somatic embryos thus produced share good synchrony and are excellent materials for re-induction of TIISEs (Refer to Example 13). […] The suspension cultures were stable for months if large embryos were removed. Further, sucrose concentration needs to be reduced below about 20 g/l (compare FIGS. 5B and 5C).
structure (smiles),measurement,setting,value
"O=C(O)COc1ccc(Cl)cc1Cl [2,4-D, 2,4-dichlorophenoxyacetic acid]",Explant Development Calli Size,"[1]; 2,4-D 0.1 mg/L",++
same,Explant Development Hypocotyl Length,"[1]; 2,4-D 0.1 mg/L",+++++
same,Explant Development Root Length,"[1]; 2,4-D 0.1 mg/L",++++
same,Explant Development Calli Size,"[1]; 2,4-D 0.2 mg/L",++
same,Explant Development Hypocotyl Length,"[1]; 2,4-D 0.2 mg/L",++++
same,Explant Development Root Length,"[1]; 2,4-D 0.2 mg/L",+++
same,Explant Development Calli Size,"[1]; 2,4-D 0.5 mg/L",+++
same,Explant Development Hypocotyl Length,"[1]; 2,4-D 0.5 mg/L",+++
same,Explant Development Root Length,"[1]; 2,4-D 0.5 mg/L",++
same,Explant Development Calli Size,"[1]; 2,4-D 1 mg/L",++++
same,Explant Development Hypocotyl Length,"[1]; 2,4-D 1 mg/L",+++
same,Explant Development Root Length,"[1]; 2,4-D 1 mg/L",++
same,Explant Development Calli Size,"[1]; 2,4-D 2 mg/L",++++
same,Explant Development Hypocotyl Length,"[1]; 2,4-D 2 mg/L",+
same,Explant Development Root Length,"[1]; 2,4-D 2 mg/L",+
same,Explant Development Calli Size,"[1]; 2,4-D 5 mg/L",+++
same,Explant Development Hypocotyl Length,"[1]; 2,4-D 5 mg/L",+
same,Explant Development Root Length,"[1]; 2,4-D 5 mg/L",+
same,Explant Development Calli Size,"[1]; 2,4-D 10 mg/L",+++
same,Explant Development Hypocotyl Length,"[1]; 2,4-D 10 mg/L",+
same,Explant Development Root Length,"[1]; 2,4-D 10 mg/L",+
same,Explant Development Calli Size,"[1]; 2,4-D 15 mg/L",++
same,Explant Development Hypocotyl Length,"[1]; 2,4-D 15 mg/L",+
same,Explant Development Root Length,"[1]; 2,4-D 15 mg/L",+
same,Explant Development Calli Size,"[1]; 2,4-D 20 mg/L",+
same,Explant Development Hypocotyl Length,"[1]; 2,4-D 20 mg/L",+
same,Explant Development Root Length,"[1]; 2,4-D 20 mg/L",+
same,Calli formation,[1],more favorable at about 0.5-10 mg/l
same,TIISE (%),"[2]; 2,4-D 0.1 mg/L 4 weeks",11%
same,TIISE Count,"[2]; 2,4-D 0.1 mg/L 4 weeks, 19 explants",2
same,TIISE (%),"[2]; 2,4-D 0.2 mg/L 4 weeks",4%
same,TIISE Count,"[2]; 2,4-D 0.2 mg/L 4 weeks, 28 explants",1
same,TIISE (%),"[2]; 2,4-D 0.5 mg/L 4 weeks",19%
same,TIISE Count,"[2]; 2,4-D 0.5 mg/L 4 weeks, 16 explants",3
same,TIISE (%),"[2]; 2,4-D 1 mg/L 4 weeks",0%
same,TIISE Count,"[2]; 2,4-D 1 mg/L 4 weeks, 19 explants",0
same,TIISE (%),"[2]; 2,4-D 2 mg/L 4 weeks",36%
same,TIISE Count,"[2]; 2,4-D 2 mg/L 4 weeks, 25 explants",9
same,TIISE (%),"[2]; 2,4-D 5 mg/L 4 weeks",39%
same,TIISE Count,"[2]; 2,4-D 5 mg/L 4 weeks, 23 explants",9
same,TIISE (%),"[2]; 2,4-D 10 mg/L 4 weeks",24%
same,TIISE Count,"[2]; 2,4-D 10 mg/L 4 weeks, 21 explants",5
same,TIISE (%),"[2]; 2,4-D 20 mg/L 4 weeks",23%
same,TIISE Count,"[2]; 2,4-D 20 mg/L 4 weeks, 13 explants",3
same,maturation of somatic embryos,"[3]; 2,4-D 0.1-0.5 g/l",significantly inhibited maturation of somatic embryos
same,calli multiplication and embryogenicity,"[3]; 2,4-D higher than 0.5 g/l",calli multiplication and embryogenicity was poor
